Experimental data: patent US9346776B2, “Fused heterocyclic compound” (Takeda Pharmaceutical Company Limited, priority 2014, dated 2016)
Values belong to the compound of their own block, whether it stands above or below them.

How the values were obtained:
[1] = biological target: T1, Human recombinant enteropeptidase (Homo sapiens, UniProt P98073); assay: Human enteropeptidase inhibitory activity; type: biochemical; details: 3.3 uM compound; fluorescence 2 hours after start of reaction; read-out: Inhibition rate at 3.3 uM (%)
T1 construct: purchased ITSI-Biosciences, LLC #REN-260
T1 sequence (P98073 whole entry): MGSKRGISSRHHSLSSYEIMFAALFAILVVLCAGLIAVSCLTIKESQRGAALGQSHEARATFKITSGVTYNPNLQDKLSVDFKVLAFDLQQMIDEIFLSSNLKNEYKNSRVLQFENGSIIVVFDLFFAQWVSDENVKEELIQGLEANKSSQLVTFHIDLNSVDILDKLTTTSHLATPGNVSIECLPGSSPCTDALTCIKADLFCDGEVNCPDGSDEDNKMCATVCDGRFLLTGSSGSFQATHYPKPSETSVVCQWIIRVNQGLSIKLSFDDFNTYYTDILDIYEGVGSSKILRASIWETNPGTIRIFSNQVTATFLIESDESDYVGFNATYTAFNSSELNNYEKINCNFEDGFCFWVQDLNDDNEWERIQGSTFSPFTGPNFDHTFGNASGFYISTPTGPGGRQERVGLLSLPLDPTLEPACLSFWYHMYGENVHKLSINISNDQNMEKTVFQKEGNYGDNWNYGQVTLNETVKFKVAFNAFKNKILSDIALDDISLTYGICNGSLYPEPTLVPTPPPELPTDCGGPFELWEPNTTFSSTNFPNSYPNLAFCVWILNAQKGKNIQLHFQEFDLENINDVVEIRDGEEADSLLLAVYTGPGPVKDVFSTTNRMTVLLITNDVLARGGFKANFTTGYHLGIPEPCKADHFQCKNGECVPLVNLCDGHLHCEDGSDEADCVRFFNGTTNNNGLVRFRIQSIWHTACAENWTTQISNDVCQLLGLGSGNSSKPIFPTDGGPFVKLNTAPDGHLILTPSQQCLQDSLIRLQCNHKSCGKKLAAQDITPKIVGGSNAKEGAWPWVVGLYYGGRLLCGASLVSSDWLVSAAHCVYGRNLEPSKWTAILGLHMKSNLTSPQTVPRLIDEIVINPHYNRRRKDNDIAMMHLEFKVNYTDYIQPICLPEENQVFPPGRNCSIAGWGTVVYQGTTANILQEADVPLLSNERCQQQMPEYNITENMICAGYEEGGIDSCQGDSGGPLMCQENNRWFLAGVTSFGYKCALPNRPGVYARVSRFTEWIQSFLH
Protocol: Test Example 1 Human enteropeptidase inhibitory activity Human recombinant enteropeptidase (#REN-260, ITSI-Biosciences, LLC) was diluted with an assay buffer (50 mM Tricine (pH 8.0), 0.01 (w/v) % Tween 20, 10 mM CaCl2) to prepare a 24 mU/mL enzyme solution. Subsequently, 5FAM-Abu-Gly-Asp-Asp-Asp-Lys-Ile-Val-Gly-Gly-Lys(CPQ2)-Lys-Lys-NH2 (purity: 97.2%, CPC Scientific, Inc.) produced according to a synthesis method known per se was diluted with an assay buffer to prepare a 2.1 uM (“u” represents “micro”) substrate solution. Each test compound was dissolved in DMSO to prepare a 1 mM solution, which was then diluted 100-fold with an assay buffer to prepare a compound solution. The compound solution (5 uL/well) and the substrate solution (5 uL/well) were added to a 384-well black plate (#784076, Greiner Bio-One) and mixed. Then, the enzyme solution (5 uL/well) was added to the plate and mixed to start reaction. The fluorescence intensity was measured at an excitation wavelength of 485 nm and a fluorescence wavelength of 535 nm using a fluorescence plate reader EnVision (PerkinElmer Inc.). Also, the same reaction as above was performed except that the test compound was not added (test compound non-supplemented group). In addition, the same reaction as above was performed except that neither the test compound nor the enzyme was added (control group). The inhibition rate was calculated from the fluorescence intensity 2 hours after the start of the reaction according to the following equation: Inhibition rate (%)=(1−(Fluorescence intensity of the test compound supplemented group−Fluorescence intensity of the control group)/(Fluorescence intensity of the test compound non-supplemented group−Fluorescence intensity of the control group))×100

[2] = tested on: diet-induced obesity (DIO) mouse; assay: Test on antiobesity action using DIO mouse; type: in vivo; details: mean ± SD; for Body weight(g) At start of administration: baseline
Protocol: Test Example 3 Test on antiobesity action using DIO mouse A 0.5% methylcellulose suspension (test compound administered group, 5 or 6 mice per group) containing each test compound (20 or 60 mg/kg) or a 0.5% methylcellulose suspension (test compound non-administered group (vehicle), 6 mice per group) was orally administered to each diet-induced obesity (DIO) mouse (D12079B diet, male, 46 weeks old) once a day for 4 weeks. The means of body weights and standard deviations at the start of administration and after 4-week continuous administration are shown below.

[3] = tested on: high fat diet-fed (HFD-fed) mouse; assay: Test on elevation of protein concentration in feces using HFD-fed mouse; type: in vivo; details: 10 mg/kg oral, feces recovered at day 1, mean ± SD, 5 mice
Protocol: Test Example 2 Test on elevation of protein concentration in feces using HFD-fed mouse A 0.5% methylcellulose suspension (test compound administered group, 5 mice per group) containing each test compound (10 mg/kg) or a 0.5% methylcellulose suspension (test compound non-administered group (vehicle), 5 mice per group) was orally administered to each high fat diet-fed (HFD-fed) mouse (D12079B diet, male, 18 weeks old), and the whole feces were recovered at day 1 of administration. The dry feces were dissolved in a 0.5 N aqueous sodium hydroxide solution. After centrifugation at 12,000 rpm, a protein concentration was quantified (Lowry method) using the supernatant to calculate a protein concentration (mg/g feces) in 1 g of feces. The mean and standard deviation of each group are shown below.

[4] = tested on: Male ob/ob mice; assay: Hypoglycemic action on diabetes mellitus animal model (2-week continuous administration); type: in vivo, mouse; details: feed containing 0.03% compound for 2 weeks, mean ± SD
Source text: Test Example 4 Hypoglycemic action on diabetes mellitus animal model (2-week continuous administration) Male ob/ob mice (6 weeks old) were used to prepare two groups each involving 5 individuals. One of the groups was fed as a control with feed free from a compound for 2 weeks, while the other group to receive compound treatment was fed with feed containing a compound at a concentration of 0.03% for 2 weeks. After 2 weeks, blood was collected from the tail vein of each mouse, and a diabetes mellitus-ameliorating action brought about by the compound treatment was evaluated. Blood glucose levels were measured using Hitachi automatic analyzer model 7180 (Hitachi, Ltd.), and glycated hemoglobin levels were measured using Tosoh automatic glycohemoglobin analyzer HLC-723G8 (Tosoh Corp.). The blood glucose and glycated hemoglobin levels of each group after the 2-week administration are indicated by mean±standard deviation in Table 6.

[5] = 20 mg/kg oral once a day for 4 weeks
[6] = 60 mg/kg oral once a day for 4 weeks

- inhibition at 3.3 µM [1]: 101%
Compound: N=C(N)Nc1ccc(C(=O)Oc2ccc3c(c2)OC[C@H]3CC(=O)N[C@@H](CC(=O)O)C(=O)O)cc1 [Example 1, N-(((3S)-6-((4-Carbamimidamidobenzoyl)oxy)-2,3-dihydro-1-benzofuran-3-yl)acetyl)-L-aspartic acid]
- Body weight(g) After 4-week continous administration [2, 5]: 43.8 ± 1.7 g
- Body weight(g) At start of administration ([2]; 20 mg/kg oral once a day): 48.3 ± 2.0 g
- Body weight(g) After 4-week continous administration [2, 6]: 41.7 ± 2.8 g
- Body weight(g) At start of administration ([2]; 60 mg/kg oral once a day): 49.5 ± 2.2 g
- Protein concentration in feces (mg/g feces) [3]: 177.6 ± 35.2 mg/g feces

- inhibition at 3.3 µM [1]: 101%
Compound: N=C(N)Nc1ccc(C(=O)Oc2ccc3c(c2)OC[C@@H]3CC(=O)N[C@@H](CC(=O)O)C(=O)O)cc1 [Example 2, N-(((3R)-6-((4-Carbamimidamidobenzoyl)oxy)-2,3-dihydro-1-benzofuran-3-yl)acetyl)-L-aspartic acid]
- Body weight(g) After 4-week continous administration [2, 5]: 46.0 ± 2.8 g
- Body weight(g) At start of administration ([2]; 20 mg/kg oral once a day): 49.6 ± 2.6 g
- Body weight(g) After 4-week continous administration [2, 6]: 44.4 ± 4.5 g
- Body weight(g) At start of administration ([2]; 60 mg/kg oral once a day): 49.8 ± 2.8 g
- Protein concentration in feces (mg/g feces) [3]: 149.8 ± 24.4 mg/g feces

- inhibition at 3.3 µM [1]: 100%
Compound: Cc1cc(OC(=O)c2ccc(NC(=N)N)cc2)cc2c1C(CC(=O)N[C@@H](CC(=O)O)C(=O)O)CO2 (stereo partly drawn) [Example 3, N-((6-((4-Carbamimidamidobenzoyl)oxy)-4-methyl-2,3-dihydro-1-benzofuran-3-yl)acetyl)-L-aspartic acid]

- inhibition at 3.3 µM [1]: 100%
Compound: N=C(N)Nc1ccc(C(=O)Oc2ccc3c(c2)OC[C@H]3CC(=O)N[C@H](CC(=O)O)C(=O)O)cc1 [Example 4, N-(((3S)-6-((4-carbamimidamidobenzoyl)oxy)-2,3-dihydro-1-benzofuran-3-yl)acetyl)-D-aspartic acid]

- inhibition at 3.3 µM [1]: 101%
Compound: N=C(N)Nc1ccc(C(=O)Oc2ccc3c(c2)OC[C@@H]3CC(=O)N[C@H](CC(=O)O)C(=O)O)cc1 [Example 5, N-(((3R)-6-((4-carbamimidamidobenzoyl)oxy)-2,3-dihydro-1-benzofuran-3-yl)acetyl)-D-aspartic acid]

- inhibition at 3.3 µM [1]: 101%
Compound: N=C(N)Nc1ccc(C(=O)Oc2ccc3c(c2)OC[C@@H]3CC(=O)N[C@@H](CCC(=O)O)C(=O)O)cc1 [Example 6, N-(((3R)-6-((4-carbamimidamidobenzoyl)oxy)-2,3-dihydro-1-benzofuran-3-yl)acetyl)-L-glutamic acid]

- inhibition at 3.3 µM [1]: 101%
Compound: N=C(N)Nc1ccc(C(=O)Oc2ccc3c(c2)OC[C@H]3CC(=O)N[C@@H](CCC(=O)O)C(=O)O)cc1 [Example 7]

- inhibition at 3.3 µM [1]: 100%
Compound: N=C(N)Nc1ccc(C(=O)Oc2ccc3c(c2)OC[C@@H]3CC(=O)N(CC(=O)O)CC(=O)O)cc1 [Example 8, 2,2′-((((3R)-6-((4-carbamimidamidobenzoyl)oxy)-2,3-dihydro-1-benzofuran-3-yl)acetyl)imino)diacetic acid]

- inhibition at 3.3 µM [1]: 100%
Compound: N=C(N)Nc1ccc(C(=O)Oc2ccc3c(c2)OC[C@@H]3CC(=O)N(CCC(=O)O)CCC(=O)O)cc1 [Example 9, 3,3′-((((3R)-6-((4-carbamimidamidobenzoyl)oxy)-2,3-dihydro-1-benzofuran-3-yl)acetyl)imino)dipropanic acid]

- inhibition at 3.3 µM [1]: 100%
Compound: N=C(N)Nc1ccc(C(=O)Oc2cc(F)c3c(c2)OCC3CC(=O)N[C@@H](CC(=O)O)C(=O)O)cc1 (stereo partly drawn) [Example 10, N-((6-((4-Carbamimidamidobenzoyl)oxy)-4-fluoro-2,3-dihydro-1-benzofuran-3-yl)acetyl)-L-aspartic acid]

- inhibition at 3.3 µM [1]: 98%
Compound: Cc1c(OC(=O)c2ccc(NC(=N)N)cc2)ccc2c1OCC2CC(=O)N[C@@H](CC(=O)O)C(=O)O (stereo partly drawn) [Example 11, N-((6-((4-carbamimidamidobenzoyl)oxy)-7-methyl-2,3-dihydro-1-benzofuran-3-yl)acetyl)-L-aspartic acid]

Compound: N=C(N)Nc1ccc(C(=O)Oc2ccc3c(c2)OC[C@H]3CC(=O)N[C@@H](CC(=O)O)C(=O)O)cc1 [Example 12, N-(((3S)-6-((4-Carbamimidamidobenzoyl)oxy)-2,3-dihydro-1-benzofuran-3-yl)acetyl)-L-aspartic acid hydrate]
- Blood glucose level [4]: 144.2 ± 19.5 mg/dL
- Glycated hemoglobin level (%) [4]: 3.5 ± 0.1%
